A short description of data set [1]: brightfield microscopy of peptide coacervate formation. The data set is classed as physicochemical. The note with it: brightfield microscopy image, FIG. 6B. The text has this: FIGS. 6A-6C show data for enhancement with His9 and His12 peptides and fluorescence micrograph images denoting coacervate formation and localization of enzymes within the coacervates. In FIG. 6A one can see the normalized initial rate of NADP+ formation of the three enzyme cascade with no BP or with addition of the His9 and His12 peptides. The flux through the cascade is increased with the addition of the BP. […] FIG. 6C is a fluorescence microscopy image of the same field as FIG. 6B showing that Alexa594 labeled enzymes are colocalized to the coacervate interior. Excitation was with a 562 nm laser and detection at 570-620 nm.
Also assayed were two peptides comprising primarily histidine, termed His9 and His12, with their sequences provided below in Table 3. FIGS. 6A to 6C show data relating to these peptides. […] The flux through the cascade is increased with the addition of the BP. […] FIG. 6C is a fluorescence microscopy image of the same subject of FIG. 6B showing that Alexa594 labeled enzymes are colocalized to the coacervate interior.

The test system of data set [2] is three enzyme cascade (AspB, LysC, Asd). The data set can be described thus: three-enzyme cascade reaction, rate of NADP+ formation with added peptide. Format: biochemical, Bacillus subtilis (AspB); E. coli (LysC. Conditions: addition of peptide vs no BP, FIG. 6A. The source says: A three-enzyme cascade was used for these examples. The first enzyme in the cascade is Bacillus subtilis aspartate ammonia lyase (AspB), which catalyzes the conversion of fumaric acid to aspartic acid. The AspB gene utilized here encodes a 54.5 kDa monomer which assembles into a final active tetramer. The second enzyme is E. coli aspartokinase III (LysC) which phosphorylates aspartic acid in the second step using adenosine triphosphate (ATP) as the phosphate donor. The LysC gene encodes a 49.9 kDa monomer, which assembles into an active ˜100 kDa homodimer. The third enzyme in the cascade, E. coli aspartate-ß-semialdehyde dehydrogenase (Asd), catalyzes conversion of aspartyl phosphate to aspartate semialdehyde using nicotinamide adenine dinucleotide phosphate (NADPH) as the reducing co-factor. The Asd gene encodes a 41.4 kDa monomer which assembles into the active homodimer.
FIG. 2 provides data for free enzymes (not bound to QD) in the presence of different blocking peptides described in Table 1. […]
Also assayed were two peptides comprising primarily histidine, termed His9 and His12, with their sequences provided below in Table 3. […] FIG. 6C is a fluorescence microscopy image of the same subject of FIG. 6B showing that Alexa594 labeled enzymes are colocalized to the coacervate interior.

A further data set concerns other enzymes. The data set can be described thus: enhancement of activity of other enzymes by peptide. The data set is classed as biochemical. The note with it: as detailed in the Appendix of Provisional Patent Application No. 63/482,369.

Turning to “[NH2]WHHHHHHHHH[COOH] (H-WHHHHHHHHH-OH) [His9]”, in data set [1], the coacervate formation entry was “form coacervates”. Further, the “flux through the cascade (normalized initial rate of NADP+ formation)” value in data set [2] is recorded as “increased”. As to “[NH2]GSWHHHHHH[Amide] (H-GSWHHHHHH-NH2) [His-amine]”, the “activity of other enzymes” value in the data set on other enzymes is given as “enhance activity”.

“[NH2]WHHHHHHHHHHHH[COOH] (H-WHHHHHHHHHHHH-OH) [His12]”: the “flux through the cascade (normalized initial rate of NADP+ formation)” value in data set [2] was “increased”.

The record behind these values is US20240254531A1, “Enhancing Coupled Catalytic Activity of Multi-Enzyme Cascades With Liquid-Liquid Phase Separation Using Peptide-Based Condensates” (The Government of the United States of America, as …, priority 2023, published 2024).
